Reference: PubChem BioAssay (NCI)
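Assay format: 96-well plates, 48-hour exposure. TGI: total growth inhibition.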 Where a SMILES comes first, the peptide text is derived from it. The star is where a group is joined. Boc = CC(C)(C)OC(=O)*

What was measured:
Assay in all cases: DTP human tumour cell line panel, 48 h
KM12 colon = test system: KM12 colon
EKVX NSCLC = test system: EKVX NSCLC
TK-10 renal = test system: TK-10 renal
RXF 393 renal = test system: RXF 393 renal
MCF7 breast = test system: MCF7 breast
CCRF-CEM leukemia = test system: CCRF-CEM leukemia
SW-620 colon = test system: SW-620 colon
NCI-H23 lung = test system: NCI-H23 lung
M14 melanoma = test system: M14 melanoma
SK-MEL-5 melanoma = test system: SK-MEL-5 melanoma
MDA-MB-231 breast = test system: MDA-MB-231 breast
ACHN renal = test system: ACHN renal
SR leukemia = test system: SR leukemia
NCI-H522 lung = test system: NCI-H522 lung
OVCAR-8 ovarian = test system: OVCAR-8 ovarian
DU-145 prostate = test system: DU-145 prostate
LOX IMVI melanoma = test system: LOX IMVI melanoma
U251 CNS = test system: U251 CNS
HOP-92 NSCLC = test system: HOP-92 NSCLC
PC-3 prostate = test system: PC-3 prostate
OVCAR-4 ovarian = test system: OVCAR-4 ovarian
IGROV1 ovarian = test system: IGROV1 ovarian
MDA-N = test system: MDA-N
HL-60(TB) leukemia = test system: HL-60(TB) leukemia
K-562 leukemia = test system: K-562 leukemia
SNB-19 CNS = test system: SNB-19 CNS
SF-295 CNS = test system: SF-295 CNS
A549 NSCLC = test system: A549 NSCLC
NCI-H460 lung = test system: NCI-H460 lung
HOP-62 NSCLC = test system: HOP-62 NSCLC
SF-539 CNS = test system: SF-539 CNS
NCI/ADR-RES ovarian = test system: NCI/ADR-RES ovarian
HCC-2998 colon = test system: HCC-2998 colon
MOLT-4 leukemia = test system: MOLT-4 leukemia
MALME-3M melanoma = test system: MALME-3M melanoma
786-0 renal = test system: 786-0 renal
SK-MEL-28 melanoma = test system: SK-MEL-28 melanoma
T-47D breast = test system: T-47D breast
UACC-257 melanoma = test system: UACC-257 melanoma
A498 renal = test system: A498 renal
OVCAR-5 ovarian = test system: OVCAR-5 ovarian
SN12C renal = test system: SN12C renal
RPMI-8226 leukemia = test system: RPMI-8226 leukemia
SF-268 CNS = test system: SF-268 CNS
HT29 colon = test system: HT29 colon
UACC-62 melanoma = test system: UACC-62 melanoma
HS 578T breast = test system: HS 578T breast
HCT-15 colon = test system: HCT-15 colon
OVCAR-3 ovarian = test system: OVCAR-3 ovarian
MDA-MB-435 = test system: MDA-MB-435
NCI-H226 lung = test system: NCI-H226 lung
HCT-116 colon = test system: HCT-116 colon
SNB-75 CNS = test system: SNB-75 CNS
UO-31 renal = test system: UO-31 renal
BT-549 breast = test system: BT-549 breast
CAKI-1 renal = test system: CAKI-1 renal
SK-OV-3 ovarian = test system: SK-OV-3 ovarian
COLO 205 colon = test system: COLO 205 colon

Measured: TGI

CNC1(C(=O)O)CC1
not listed: SNB-75 CNS | UO-31 renal | BT-549 breast | CAKI-1 renal | SK-OV-3 ovarian | COLO 205 colon
> 100 µM: all other assays above

COC(=O)[C@H](Cc1ccc(O)cc1)NC(=O)[C@H](Cc1ccc(O)cc1)NC(=O)OC(C)(C)C (Boc-Tyr-Tyr-OMe)
not listed: CCRF-CEM leukemia | SW-620 colon | SR leukemia | U251 CNS | HOP-92 NSCLC | OVCAR-4 ovarian | HL-60(TB) leukemia | K-562 leukemia | MOLT-4 leukemia | SK-MEL-28 melanoma | T-47D breast | A498 renal | SN12C renal | RPMI-8226 leukemia | MDA-MB-435
> 100 µM: all other assays above
